The values that follow come from paper PMC9835529, “Investigation of Novel Quinoline–Thiazole Derivatives as Antimicrobial Agents: In Vitro and In Silico Approaches” (ACS Omega, 2022).

Values after ≈ are worked out from the molar mass of the structure shown. Like-named read-outs stand apart in the source and are kept apart here. Some results are limits rather than exact numbers.

Broadly, the MIC90 is an inhibitory concentration at the 90% level, which refers to growth in some studies and to a panel of isolates in others. Broadly, the melting point is the temperature of the solid-liquid transition. By IC50 is commonly meant the concentration that inhibits the measured activity by half. Low values mean greater potency in that assay, high ones weaker potency in that assay. Broadly, the inhibition is how much of the control response was suppressed.

Data set [1] concerns C. glabrata ATCC 90030. Description: Anticandidal broth microdilution (EUCAST EDef 7.1), MIC90. It counts as cell-based, Candida glabrata. The following applies: Nakaseomyces glabratus, ATCC90030, C. glabrata ATCC 90030. The text has this: (§1) E. coli (ATCC 35218), E. coli (ATCC 25922), S. aureus (ATCC 6538), methicillin-resistant S. aureus (MRSA) (clinical isolate), S. typhimurium (ATCC 13311), and K. pneumoniae (NCTC 9633) cells for antibacterial effect, and C. albicans (ATCC 24433), C. glabrata (ATCC 90030), C. krusei (ATCC 6258), and C. parapsilosis (ATCC 22019) for the antifungal effect of the final compounds were used to determine the MIC90 values. The broth microdilution procedure specified in the M07-A9 document of the Clinical and Laboratory Standards Institute (CLSI) was used for antibacterial study,[55] and the EDef 7.1 document published by EUCAST was used for the antifungal study.[56] For both activity studies, the detailed procedures were explained in previous studies.[57],[58]

Data set [2] concerns Candida krusei ATCC 6258. The data set is described as above. It counts as cell-based.
Excerpt: as §1

Data set [3] has as its system Candida albicans ATCC 24433. The data set is described as above. It counts as cell-based.
Excerpt: as §1

Data set [4] relates to Candida parapsilosis ATCC 22019. The data set is described as above. It counts as cell-based.
Excerpt: as §1

Data set [5] has as its system Escherichia coli ATCC 35218. The experiment in a line: Antibacterial broth microdilution (CLSI M07-A9), MIC90. It counts as cell-based. The following applies: Escherichia coli, ATCC35218; E. coli ATCC 35218. The text has this: (§2) The broth microdilution procedure specified in the M07-A9 document of the Clinical and Laboratory Standards Institute (CLSI) was used for antibacterial study,[55] and the EDef 7.1 document published by EUCAST was used for the antifungal study.[56] For both activity studies, the detailed procedures were explained in previous studies.[57],[58]

The subject of data set [6] is Staphylococcus aureus ATCC 6538. Described as above. The conditions noted are these: S. aureus ATCC 6538. It counts as cell-based.
Excerpt: as §2

In data set [7] the test system is Klebsiella pneumoniae NCTC 9633. The description is as above. It counts as cell-based. The following applies: NCTC9633, K. pneumoniae NCTC 9633.
Excerpt: as §2

Data set [8] has as its system Salmonella typhimurium ATCC 13311. The data set is described as above. The conditions noted are these: Salmonella enterica; S. typhimurium ATCC 13311. It counts as cell-based.
Excerpt: as §2

The subject of data set [9] is E. coli ATCC 25922. The data set is described as above. It counts as cell-based. The following applies: Escherichia coli, ATCC25922.
Excerpt: as §2

Data set [10] relates to methicillin-resistant S. aureus (MRSA) (clinical isolate). Described as above. It counts as cell-based. The following applies: Staphylococcus aureus.
Excerpt: as §2

The test system of data set [11] is NIH/3T3 cells. The experiment in a line: Cytotoxicity on NIH/3T3 healthy cell line. It counts as cell-based. The following applies: Mus musculus, NIH3T3, 24 h incubation. How it is done:
NIH/3T3 cells were incubated in Dulbecco’s modified Eagle’s medium (DMEM) (Sigma-Aldrich, St. Louis, MO), added with fetal calf serum, penicillin (100 IU/mL), streptomycin ([…]), and 7.5% NaHCO3 at 37 °C in a humidified atmosphere of 95% air and 5% CO2. NIH/3T3 cells were seeded into the 96-well plates at a density of 1 × 10^4 cells. After 24 h of incubating period, the culture media were removed, and test compounds were added. After 24 h of incubation period, colorimetric measurements were performed by a microplate reader (Biotek) at 540 nm. Inhibition % at all concentrations was determined using the formula below, and the IC50 values were calculated from a dose–response curve obtained by plotting the percentage inhibition versus the log concentration with the use of Microsoft Excel 2013.

Data set [12] concerns the target T1, Lanosterol 14α-demethylase (LMD, CYP51A1) (Candida glabrata, UniProt P50859).
T1 construct: tested against Candida strains via the determination of ergosterol production; endogenous in cells; host or cells: C. glabrata (ATCC 90030)
Description: LDM (CYP51A1) inhibition by LC-MS-MS quantification of ergosterol level. The conditions noted are these: read-out: CYP51A1 Inhibition%. It counts as cell-based. How it is done: (§3) The activity of the target compounds was tested against Candida strains via the determination of ergosterol production.
(§4) Ergosterol level was determined using the extract of total sterols from C. albicans (and its other species) following the method described by Breivik and Owades.[63] Quantification of the ergosterol level in this extract was carried out by the recently described method.[58],[64]−[66] According to these described studies, in the current work, compounds 4b, 4e, 4f, and 4h–m were undertaken to investigate their action mechanism. Thus, the LC-MS-MS-based method that quantifies the ergosterol level was applied. […]. Ergosterol quantity in negative control samples was regarded as 100%. All concentrations were analyzed in quadruplicate, and the results were expressed as mean ± standard deviation (SD).

The test system of data set [13] is Lanosterol 14α-demethylase (LMD, CYP51A1). The description is as above. It counts as cell-based. How it is done:
as §3, §4

The mark [14] stands for this setting: Pichia kudriavzevii, ATCC6258, C. krusei ATCC 6258, read-out: MIC90.
Setting [15] is: Candida albicans, ATCC24433, C. albicans ATCC 24433, read-out: MIC90.
Setting [16] is: Lodderomyces parapsilosis, ATCC22019, C. parapsilosis ATCC 22019, read-out: MIC90.
Setting [17] is: Staphylococcus aureus, ATCC6538, read-out: MIC90.

T1 sequence (P50859 whole entry): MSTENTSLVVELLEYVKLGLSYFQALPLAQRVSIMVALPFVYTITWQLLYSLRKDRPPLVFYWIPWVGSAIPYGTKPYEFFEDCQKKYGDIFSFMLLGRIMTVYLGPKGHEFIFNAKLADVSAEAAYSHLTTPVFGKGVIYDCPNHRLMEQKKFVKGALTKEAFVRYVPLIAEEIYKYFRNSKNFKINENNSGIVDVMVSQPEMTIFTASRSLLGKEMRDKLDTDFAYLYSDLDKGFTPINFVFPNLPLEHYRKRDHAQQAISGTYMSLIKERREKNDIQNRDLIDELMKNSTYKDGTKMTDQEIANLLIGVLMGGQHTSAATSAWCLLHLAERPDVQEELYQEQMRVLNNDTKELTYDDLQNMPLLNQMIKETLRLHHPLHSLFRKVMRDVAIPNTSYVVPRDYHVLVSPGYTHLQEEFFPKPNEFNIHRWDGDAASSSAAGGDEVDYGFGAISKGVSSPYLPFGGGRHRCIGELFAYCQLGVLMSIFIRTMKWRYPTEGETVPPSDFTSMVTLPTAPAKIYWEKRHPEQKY

`COc1ccc2nc(Cl)c(/C=N/Nc3nc(-c4ccc5ccccc5c4)cs3)cc2c1` [4n] returned a melting point of 199 to 202 °C. Besides, in [1], the MIC90 is 1.95 mg/L (≈ 4.38 µM). The MIC90 in data set [2] (setting [14]) was 1.95 mg/L (≈ 4.38 µM). Moreover, in data set [3] (setting [15]), the MIC90 came out at 3.91 mg/L (≈ 8.79 µM). In addition, in data set [4] (setting [16]), the MIC90 came to 1.95 mg/L (≈ 4.38 µM). Further, the MIC90 in data set [5] was more than 1000 mg/L. Also, the MIC90 in data set [6] (setting [17]) turned out to be 62.5 mg/L (≈ 140 µM). In data set [7], this molecule showed an MIC90 of more than 1000 mg/L. The MIC90 in data set [8] is more than 1000 mg/L. The molecule also registered an MIC90 in data set [9] of more than 1000 mg/L. Besides, the MIC90 in data set [10] is more than 1000 mg/L. For the same molecule, the half-maximal inhibitory concentration (IC50) in data set [11] was more than 1000 µM.

As for `CC(=O)N1CCN(c2ccc(OCC3COC(Cn4ccnc4)(c4ccc(Cl)cc4Cl)O3)cc2)CC1` (centres unmarked) [ketoconazole, reference compound], the MIC90 in [1] is 0.24 mg/L (≈ 0.452 µM); in [2] (C. krusei ATCC 6258, listed as Rf), not above 0.06 mg/L; in data set [2] (setting [14]) it was less than 0.06 mg/L; in [3] (C. albicans ATCC 24433, listed as Rf), not above 0.06 mg/L; in data set [3] (setting [15]), less than 0.06 mg/L; in [4] (C. parapsilosis ATCC 22019, listed as Rf) it was not above 0.06 mg/L. In data set [4] (setting [16]), the MIC90 is less than 0.06 mg/L. In data set [12] (C. glabrata, 0.06 μg/mL), the inhibition at 0.06 µg/mL amounted to 50.4 ± 1.16%. Moreover, the inhibition at 0.24 µg/mL in data set [12] (C. glabrata, 0.24 μg/mL) was found to be 61.9 ± 1.83%. Also, the inhibition at 0.98 µg/mL in data set [12] (C. glabrata, 0.98 μg/mL) is 72.8 ± 2.87%. For the same molecule, the “CYP51A1 Inhibition%” value in [13] (C. krusei, 0.06 μg/mL) stood at 52.865 ± 1.662%; in data set [13] (C. krusei, 0.24 μg/mL), 60.630 ± 2.875%; in data set [13] (C. krusei, 0.98 μg/mL), 75.647 ± 2.749%; in [13] (C. parapsilosis, 0.06 μg/mL), 55.348 ± 1.091%; in [13] (C. parapsilosis, 0.24 μg/mL) it was 63.419 ± 2.074%; in data set [13] (C. parapsilosis, 0.98 μg/mL) it was 71.864 ± 2.229%.

Turning to `COc1ccc2nc(Cl)c(/C=N/Nc3nc(-c4ccccc4)cs3)cc2c1` [4d], the melting point was in the range of 220 to 222 °C. This molecule came in with an MIC90 in data set [1] of 1.95 mg/L (≈ 4.94 µM). Besides, the MIC90 in data set [2] (setting [14]) stood at 1.95 mg/L (≈ 4.94 µM). Moreover, the MIC90 in data set [3] (setting [15]) came to 1.95 mg/L (≈ 4.94 µM). For the same molecule, the MIC90 in data set [4] (setting [16]) was determined as 15.6 mg/L (≈ 39.6 µM). In data set [5], this molecule registered an MIC90 of more than 1000 mg/L. The MIC90 in [6] (setting [17]) is more than 1000 mg/L. Moreover, the MIC90 in data set [7] is more than 1000 mg/L. In [8], this molecule had an MIC90 of more than 1000 mg/L. The MIC90 in data set [9] is more than 1000 mg/L. In data set [10], the MIC90 was more than 1000 mg/L. In data set [11], the 50% inhibitory concentration (IC50) worked out at 1.26 ± 0.033 µM.

Regarding `OC(Cn1cncn1)(Cn1cncn1)c1ccc(F)cc1F` [fluconazole, reference compound], in data set [12], the inhibition at 0.06 µg/mL was 46.3 ± 0.936%. Also, the inhibition at 0.24 µg/mL in [12] amounted to 63.7 ± 2.19%. Moreover, the inhibition at 0.98 µg/mL in [12] worked out at 70.1 ± 2.05%. For the same molecule, the “CYP51A1 Inhibition%” value in data set [13] (C. krusei, 0.06 μg/mL) is 43.378 ± 0.937%; in [13] (C. krusei, 0.24 μg/mL), 60.132 ± 2.042%; in data set [13] (C. krusei, 0.98 μg/mL), 72.523 ± 1.961%; in [13] (C. parapsilosis, 0.06 μg/mL) it was 49.579 ± 1.733%; in [13] (C. parapsilosis, 0.24 μg/mL), 61.533 ± 1.282%; in data set [13] (C. parapsilosis, 0.98 μg/mL), 73.204 ± 2.031%.

For the molecule `COc1ccc2nc(Cl)c(/C=N/Nc3nc(-c4ccc(F)cc4)cs3)cc2c1` [4a], the melting point was in the range of 193 to 195 °C. In addition, the MIC90 in data set [1] stood at 1.95 mg/L (≈ 4.72 µM). Besides, the MIC90 in data set [2] (setting [14]) is 31.2 mg/L (≈ 75.7 µM). For the same molecule, in data set [3] (setting [15]), the MIC90 is more than 1000 mg/L. The MIC90 in [4] (setting [16]) is 15.6 mg/L (≈ 37.9 µM). Further, the MIC90 in [5] is more than 1000 mg/L. The MIC90 in data set [6] (setting [17]) is more than 1000 mg/L. For the same molecule, in data set [7], the MIC90 is more than 1000 mg/L. Besides, the MIC90 in data set [8] is more than 1000 mg/L. The molecule also showed an MIC90 in data set [9] of more than 1000 mg/L. The MIC90 in [10] was more than 1000 mg/L. The molecule also showed an IC50 in [11] of 39.8 ± 1.45 µM.

On to `O=C(N[C@H](CO)[C@H](O)c1ccc([N+](=O)[O-])cc1)C(Cl)Cl` [chloramphenicol, reference compound], for which the MIC90 in data set [5] is 31.2 mg/L (≈ 96.7 µM); in [6] (listed as RF-1) it was not above 1.95 mg/L; in data set [6] (setting [17]), not above 1.95 mg/L; in data set [7], 31.2 mg/L (≈ 96.7 µM); in [8] it was 31.2 mg/L (≈ 96.7 µM); in data set [9], 15.6 mg/L (≈ 48.4 µM). For the same molecule, the MIC90 in [10] amounted to 31.2 mg/L (≈ 96.7 µM).
